From paper PMC6669558, “Bioactive Compounds Isolated from Marine Bacterium Vibrio neocaledonicus and Their Enzyme Inhibitory Activities” (Marine Drugs, 2019) come the findings set out here.

The term IC50 denotes the point on the concentration scale where inhibition reaches its midpoint.

Values joined by “and” are separate entries in the source; they are usually repeats but may differ in a detail not shown here. Equal values may be shown once. Marks after values point to notes of the source that are not given here.

Test [1] has as its target T1, xanthine oxidase from bovine milk (Bos taurus, UniProt P80457).
T1 construct: purchased Sigma Aldrich (Shanghai, China); host or cells: bovine milk
Nature of the test: Xanthine oxidase inhibition assay. It counts as biochemical. From the text:
(§1) Acetylcholinesterase from Electrophorus electricus, alphaglucosidase from Saccharomyces cerevisiae, and xanthine oxidase from bovine milk were obtained from Sigma Aldrich (Shanghai, China). The other reagents used in the bioassays were purchased either from Solarbio or Sigma Aldrich. Analytical reagent grade organic solvents for extraction were purchased from XL Xilong Scientific Chemical. Silica gel plates (Silica gel 60 F254 0.2 mm layer thickness) were purchased from Merck (KGaA, Darmstadt, Germany). A spectrometer (Thermo Scientific Multiskan GO, Vantaa, Finland) was used for all measurements of AChE, AG and XO inhibitory activities. The venom was extracted and collected manually from the adult specimens of B. asper snakes from Colombia (South America) that were held captive in the Serpentarium at University of Antioquia. The venom was centrifuged, and the supernatant was lyophilized and frozen at −70 °C until its use.
The assay was based on the developed method of Valentao [56] and modified for application in microplates by Lopez-Cruz. All test samples were dissolved in a 50 mM phosphate buffer to simulate the environment in which the reaction occurs in the body. […] The control contained all components except the sample. The inhibitory rate was calculated as the formula: %I = [1 − (ODs − OD sample sb)/ODn-ODnb] × 100%; where: ODn is the absorbance value of the sample system in which sample is substituted by PBS, ODnb is the absorbance value of ODn in which no XO was added, ODsb is the absorbance of ODs in which no XO was added.

Test [2] addresses T2, Acetylcholinesterase from Electrophorus electricus (Electrophorus electricus, UniProt O42275).
T2 construct: purchased Sigma Aldrich (Shanghai, China)
Kind of test: Acetylcholinesterase inhibition assay (Ellman, ATCI substrate). It counts as biochemical.
Text: as §1
AChE inhibition was determined according to the method of Ellman with ATCI as substrate. […] The control contained all components except the tested extract. The inhibitory rate was calculated as the formula: %I = [1 − (ODs−OD sample sb)/ODn-ODnb] × 100%; where: ODn is the absorbance value of the sample system in which sample is substituted by PBS, ODnb is the absorbance value of ODn in which no AChE was added, ODsb is the absorbance of ODs in which no AchE was added.

Test [3] addresses T3, alphaglucosidase from Saccharomyces cerevisiae (Saccharomyces cerevisiae, UniProt P53341).
T3 construct: purchased Sigma Aldrich (Shanghai, China)
Nature of the test: Alphaglucosidase inhibition assay (pNPG). In kind it is biochemical. To be noted: for inhibitory activity for the enzyme AG (in words): at any of the tested doses (3.125-50 µg/mL).
Text: as §1
The AG inhibition activity was evaluated by measuring the release of p-nitrophenol from p nitrophenyl-α-D-glucopyranoside (pNPG) following the protocol proposed by Pistia-Brueggemann, with modifications. […] The control (C-) contained all the reagents but the sample was substituted by PBS. […] The inhibitory rate was calculated as the formula: %I = [1 − (ODs − OD sample sb)/ODn-ODnb] × 100%; where: ODn is the absorbance value of the sample system in which sample is substituted by PBS, ODnb is the absorbance value of ODn in which no AG was added, ODsb is the absorbance of ODs in which no AG was added.

Test [4] has as its system B. asper venom. Kind of test: Inhibition of proteolytic activity of venom on azocasein. Particulars: 3 µg venom per well. It counts as biochemical, Bothrops asper.
Text: as §1
The proteolytic activity was measured on azocasein (Sigma Aldrich, St. Lous, MO, USA) according to Wang with some modifications. […] The supernatant (100 μL) was mixed with an equal volume of 0.5 M NaOH, and the absorbance was measured at 450 nm. Results are shown as percentage of activity (absorbance at 450 nm). […]

Test [5] deals with Phospholipase A2 (Cdcum6). Kind of test: Inhibition of PLA2 activity with 4N3OBA substrate. It counts as biochemical, Crotalus durissus cumanensis. As for the experimental part: (§2) Batx-I was isolated from Bothrops atrox according to the protocol of Patiño. Purification was done by ion-exchange chromatography (CM Sephadex C25) and the toxin purity was tested by RP-HPLC and SDS PAGE. PLA2 was isolated from Crotalus durissus cumanensis according to the protocol of Pereañez. PLA2 was purified by RP-HPLC on C-18 column eluted at 1.0 mL/min with a gradient from 0% to 100% acetonitrile in 0.1% trifluoroacetic acid (v/v). Absorbance was monitored at 215 nm. Batx-I and Cdcum6 were lyophilized and stored at −20 °C until their use.
The inhibitory effect of indole on the PLA2 of snake venom was assessed by two methods; the first of them, using monodispersed substrate 4N3OBA (manufactured by BIOMOL, Hamburg Germany) according to the method described by Holzer and Mackessy and adapted for a 96-well ELISA plate. […] The inhibitory effect of indole on PLA2 activity was determined through pre-incubation of the enzyme with each concentration of the compound for 30 min at 37 °C. After the incubation period, the sample was added to the assay and the reaction was monitored at 425 nm for 40 min at 37 °C. The quantity of chromophore released (4-nitro-3-hydroxy benzoic acid) was proportional to the enzymatic activity. […]

Test [6] concerns B. asper venom. Kind of test: Inhibition of coagulant activity of venom (plasma clotting time). It counts as biochemical, Bothrops asper. As for the experimental part:
The method described by Theakston and Reid was followed, with small modifications. Briefly, 1.0 µg of B. asper dissolved in 25 µL PBS were mixed with 75 µL of different concentrations of indole, and pre-incubated for 30 min at 37 °C. After, 100 µL of mixtures were added to 0.2 mL of plasma, and the time required for plasma coagulation was determined.

Test [7] concerns B. asper venom. Nature of the test: Inhibition of indirect hemolytic activity (agarose-erythrocyte-egg yolk gels). It counts as biochemical, Bothrops asper. To be noted: at tested doses. The method, then:
The second method to evaluate the inhibitory effect of indole on PLA2, was determining the inhibition of the indirect hemolytic activity. This was evaluated in agarose-erythrocyte-egg yolk gels according to Gutierrez. It used a minimum indirect hemolytic dose (MIHD) of B. asper venom of 2.2 μg, defined as the amount of venom that induced a 20 mm diameter hemolytic halo. Venom and different doses of indole were preincubated for 30 min at 37 °C and the inhibitory potential was measured after 20 h of plate incubation at 37 °C. This experiment was done in triplicate.

The test system of test [8] is Metalloproteinase (Batx-I). Kind of test: Inhibition of proteolytic activity of isolated metalloproteinase on azocasein. It counts as biochemical, Bothrops atrox. Particulars: 3 µg toxin per well. As for the experimental part:
as §2
The proteolytic activity was measured on azocasein (Sigma Aldrich, St. Lous, MO, USA) according to Wang with some modifications. Briefly, 3 µg of B. asper venom or Batx-I were dissolved in 5 μL of 25 mM Tris (0.15 M NaCl, 5 mM CaCl2), pH 7.4, and were mixed with different doses of indole in order to obtain 1:20, 1:10 and 1:5 w/w ratios, respectively. Mixes were pre-incubated for 30 min at 37 °C. Later, these solutions were incubated with 10 mg/mL of azocasein diluted in the same buffer. After an incubation of 90 min at 37 °C, the reaction was stopped by the addition of 200 μL of trichloroacetic acid. The samples were then centrifuged at 3000 rpm for 5 min. The supernatant (100 μL) was mixed with an equal volume of 0.5 M NaOH, and the absorbance was measured at 450 nm. Results are shown as percentage of activity (absorbance at 450 nm). […]

Where [9] appears, read: dose 50 µg/mL, listed as indole.

T2 sequence (O42275 24-633): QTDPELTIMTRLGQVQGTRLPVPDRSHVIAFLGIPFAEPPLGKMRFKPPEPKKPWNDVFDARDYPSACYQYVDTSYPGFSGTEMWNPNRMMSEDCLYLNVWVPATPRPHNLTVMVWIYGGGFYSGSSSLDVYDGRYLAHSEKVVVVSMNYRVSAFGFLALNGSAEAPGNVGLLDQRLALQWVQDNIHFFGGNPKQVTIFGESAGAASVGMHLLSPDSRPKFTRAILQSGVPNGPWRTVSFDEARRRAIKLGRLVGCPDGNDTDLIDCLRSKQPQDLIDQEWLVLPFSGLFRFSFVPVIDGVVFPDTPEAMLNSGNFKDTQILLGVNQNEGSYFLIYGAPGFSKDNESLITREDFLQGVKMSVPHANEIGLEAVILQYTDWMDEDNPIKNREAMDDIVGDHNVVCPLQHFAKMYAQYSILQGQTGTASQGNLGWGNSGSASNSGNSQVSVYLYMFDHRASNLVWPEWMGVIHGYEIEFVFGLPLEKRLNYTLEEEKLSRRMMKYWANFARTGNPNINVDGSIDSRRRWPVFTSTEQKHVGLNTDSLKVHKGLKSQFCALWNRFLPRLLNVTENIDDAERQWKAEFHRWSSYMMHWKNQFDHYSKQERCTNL
T3 sequence (P53341 whole entry): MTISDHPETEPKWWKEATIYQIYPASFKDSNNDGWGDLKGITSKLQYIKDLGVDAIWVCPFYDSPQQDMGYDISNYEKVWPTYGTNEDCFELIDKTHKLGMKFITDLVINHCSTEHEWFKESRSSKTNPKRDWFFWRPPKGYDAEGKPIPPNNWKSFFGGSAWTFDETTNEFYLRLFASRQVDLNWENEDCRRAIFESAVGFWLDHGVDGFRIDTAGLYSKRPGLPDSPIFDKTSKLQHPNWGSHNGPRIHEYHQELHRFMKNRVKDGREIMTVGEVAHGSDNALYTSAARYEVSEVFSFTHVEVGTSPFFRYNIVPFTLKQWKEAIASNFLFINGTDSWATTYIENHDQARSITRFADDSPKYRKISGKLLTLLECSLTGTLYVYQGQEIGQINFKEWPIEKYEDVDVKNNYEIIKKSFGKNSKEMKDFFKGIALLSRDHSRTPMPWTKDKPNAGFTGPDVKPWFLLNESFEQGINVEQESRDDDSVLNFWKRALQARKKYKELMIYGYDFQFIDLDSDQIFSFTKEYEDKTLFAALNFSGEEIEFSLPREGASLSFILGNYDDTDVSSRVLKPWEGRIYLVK
T1 sequence (P80457 whole entry): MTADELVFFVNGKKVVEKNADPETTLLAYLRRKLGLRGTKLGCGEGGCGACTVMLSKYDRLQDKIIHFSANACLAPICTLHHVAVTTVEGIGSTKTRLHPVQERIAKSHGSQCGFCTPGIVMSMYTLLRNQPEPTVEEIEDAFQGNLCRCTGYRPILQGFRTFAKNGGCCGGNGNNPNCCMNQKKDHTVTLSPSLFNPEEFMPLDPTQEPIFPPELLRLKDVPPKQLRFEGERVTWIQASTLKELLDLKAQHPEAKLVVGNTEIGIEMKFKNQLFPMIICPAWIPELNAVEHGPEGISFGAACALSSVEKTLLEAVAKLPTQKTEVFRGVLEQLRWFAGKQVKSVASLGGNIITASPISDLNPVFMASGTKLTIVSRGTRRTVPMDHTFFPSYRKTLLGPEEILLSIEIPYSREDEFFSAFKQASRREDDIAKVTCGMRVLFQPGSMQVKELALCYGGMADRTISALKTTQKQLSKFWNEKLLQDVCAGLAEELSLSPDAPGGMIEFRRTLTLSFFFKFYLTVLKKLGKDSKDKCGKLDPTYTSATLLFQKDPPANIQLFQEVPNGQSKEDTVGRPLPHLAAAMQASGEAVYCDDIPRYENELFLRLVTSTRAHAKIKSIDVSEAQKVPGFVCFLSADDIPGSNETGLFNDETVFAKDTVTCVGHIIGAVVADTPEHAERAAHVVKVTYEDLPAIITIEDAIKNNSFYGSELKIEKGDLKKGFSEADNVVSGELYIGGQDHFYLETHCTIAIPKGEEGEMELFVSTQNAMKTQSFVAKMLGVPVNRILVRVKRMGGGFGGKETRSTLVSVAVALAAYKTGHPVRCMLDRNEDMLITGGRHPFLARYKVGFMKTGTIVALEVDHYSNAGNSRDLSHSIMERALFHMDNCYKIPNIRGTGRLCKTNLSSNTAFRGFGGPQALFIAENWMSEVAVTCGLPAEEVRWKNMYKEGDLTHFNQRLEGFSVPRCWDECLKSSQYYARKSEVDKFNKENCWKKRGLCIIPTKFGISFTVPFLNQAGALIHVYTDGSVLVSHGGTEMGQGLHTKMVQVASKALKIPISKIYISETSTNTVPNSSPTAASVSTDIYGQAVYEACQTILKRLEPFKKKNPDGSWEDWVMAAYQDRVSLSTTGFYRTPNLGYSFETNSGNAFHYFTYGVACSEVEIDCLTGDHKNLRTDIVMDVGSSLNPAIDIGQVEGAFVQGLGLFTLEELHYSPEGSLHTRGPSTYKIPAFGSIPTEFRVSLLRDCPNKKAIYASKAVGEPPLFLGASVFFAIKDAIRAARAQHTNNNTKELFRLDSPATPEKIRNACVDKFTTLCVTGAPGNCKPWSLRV

In the case of `O=Cc1ccc(O)cc1` [4-hydroxybenzaldehyde], the IC50 turned out to be 506 ± 16 µM in test [1] and 6890 ± 118 µM in test [2]. Also, the XOI% is 17.39 ± 0.49% in test [1] (dose 3.125 µg/mL); 25.27 ± 0.19% in test [1] (dose 6.25 µg/mL); 31.67 ± 0.52% in test [1] (dose 25 µg/mL); 50.75% and 50.75 ± 0.50% in test [1] (dose 50 µg/mL). The AChEI% in test [2] (dose 3.125 µg/mL) is 0%; in test [2] (dose 6.25 µg/mL), 4.21 ± 0.01%; in test [2] (dose 25 µg/mL), 14.26 ± 0.011%; in test [2] (dose 50 µg/mL) it was 25.7% and 25.7 ± 0.56%. In addition, the “inhibitory activity for the enzyme AG (in words)” value in test [3] is given as “no inhibitory activity”. Also, the AGI% in test [3] (dose 3.125 µg/mL), in test [3] (dose 6.25 µg/mL), in test [3] (dose 25 µg/mL) and in test [3] (dose 50 µg/mL) was 0% each time.

Consider `c1ccc2[nH]ccc2c1` [Indole, indole], for which the 50% inhibitory concentration (IC50) in test [1] came out at 843 ± 16.7 µM; in test [2], 335 ± 13.1 µM; in test [3] (read-out: AG (IC50 µM)) it was 18.7 ± 1.1 µM. The XOI% in test [1] (dose 3.125 µg/mL) was found to be 15.01 ± 0.31%; in test [1] (dose 6.25 µg/mL) it was 17.77 ± 0.52%; in test [1] (dose 25 µg/mL), 25.17 ± 0.65%; in test [1] (dose 50 µg/mL) it was 44.30 ± 1.14%; in test [1] (setting [9]), 44.3%. Moreover, the “proteolytic activity inhibition of B. asper venom (in words)” value in test [4] (venom:compound ratio 1:10) is given as “weak inhibition without significance”. The “proteolytic activity inhibition of B. asper venom” value in test [4] (venom:compound ratio 1:20 w/w) is reported as 77.9% ± 5.5. The AChEI% in test [2] (dose 3.125 µg/mL) came to 0%; in test [2] (dose 6.25 µg/mL), 9.42 ± 0.07%; in test [2] (dose 25 µg/mL) it was 37.54 ± 1.26%; in test [2] (dose 50 µg/mL), 51.3 ± 1.67 %; in test [2] (setting [9]), 51.3%. In addition, the “inhibition of PLA2 activity (given as proteolytic activity inhibition)” value in test [5] (toxin:compound ratio 1:10) is recorded as 10.0%; in test [5] (toxin:compound ratio 1:20), 15.20%. Also, the “coagulant activity of the compound by itself (in words)” value in test [6] (compound alone, after half an hour of incubation) is given as “did not generate coagulant activity”. In addition, the “inhibition of the coagulating effect in vitro (in words)” value in test [6] (induced by 1.0 µg of venom) was “significant in vitro inhibition”. Further, the “maximum delay time for clotting onset (clotting time)” value in test [6] (venom:compound ratio 1:20 w/w, 1.0 µg venom, venom alone 21.6 ± 0.8 s) is on record as 99 ± 4.0 s. Further, the AGI% in test [3] (dose 3.125 µg/mL) worked out at 51.43 ± 1.06 %; in test [3] (dose 3.125 µg/mL, listed as indole), 51.43%; in test [3] (dose 6.25 µg/mL), 81.49 ± 1.17 %; in test [3] (dose 6.25 µg/mL, listed as indole), 81.49%; in test [3] (dose 25 µg/mL), 94.4 ± 1.01 %; in test [3] (dose 25 µg/mL, listed as indole) it was 94.4%. Further, the AGI% in test [3] (dose 50 µg/mL) was 100 *** %. Moreover, the “inhibition of the indirect hemolytic activity of the complete venom (in words)” value in test [7] is listed as “did not show inhibition”. Also, the “inhibition of proteolytic activity of metalloprotease” value in test [8] (toxin:compound ratio 1:5, not significant) amounted to 4.31 ± 1.9; in test [8] (toxin:compound ratio 1:10), 13.54 ± 2.5.

Compound `O=Cc1c[nH]c2ccccc12` [1H-indole-3-carboxaldehyde] returned a half-maximal inhibitory concentration (IC50) in test [1] of 13.4 ± 0.39 µM. For the same compound, the XOI% in test [1] (dose 3.125 µg/mL) is 61.14% and 61.14 ± 0.14 %; in test [1] (dose 6.25 µg/mL) it was 67.69% and 67.69 ± 0.34 %; in test [1] (dose 25 µg/mL) it was 86.49% and 86.49 ± 0.89 %; in test [1] (dose 50 µg/mL) it was 100% and 100 *** %. Besides, the AChEI% in test [2] (dose 3.125 µg/mL), in test [2] (dose 6.25 µg/mL), in test [2] (dose 25 µg/mL) and in test [2] (dose 50 µg/mL) was 0% each time. The “inhibitory activity for the enzyme AG (in words)” value in test [3] is given as “no inhibitory activity”. The AGI% in test [3] (dose 3.125 µg/mL), in test [3] (dose 6.25 µg/mL), in test [3] (dose 25 µg/mL) and in test [3] (dose 50 µg/mL) was 0% in each case.
